According to patent US20240409557A1, “5,6-FUSED AND 6,6-FUSED BICYCLIC ALCOHOLS AND ETHERS AND COMPOSITIONS FOR USE AS 15-PROSTAGLANDIN DEHYDROGENASE MODULATORS” (AMGEN INC., priority 2023, published 2024):

Key:
15-PGDH in A549 cells = biological target: T1, 15-PGDH in A549 cells (Homo sapiens, UniProt P15428); test: A549 cellular 15-PGDH assay (PGE2 accumulation, HTRF); assay type: cell-based; conditions: interleukin-stimulated, inhibitor 24 hrs, PGE2 by competitive HTRF, read-out: A549 Cell Assay IC50
T1 construct: endogenous in cells; host or cells: A549
T1 sequence (P15428 1-266): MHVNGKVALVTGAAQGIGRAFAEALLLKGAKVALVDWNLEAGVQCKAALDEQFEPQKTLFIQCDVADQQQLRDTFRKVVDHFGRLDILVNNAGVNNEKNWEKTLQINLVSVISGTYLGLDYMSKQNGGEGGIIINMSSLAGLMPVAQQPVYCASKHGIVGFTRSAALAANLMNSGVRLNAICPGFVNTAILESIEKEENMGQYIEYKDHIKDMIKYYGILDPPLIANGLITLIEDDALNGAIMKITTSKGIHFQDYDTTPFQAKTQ
Text: This assay was used for the quantification of IL-13 induced Native Prostaglandin E2 (PGE2) produced by A549 cells (epithelial cells from lung carcinoma) in cell culture supernatants. […] PGE2 was detected in a competitive HTRF assay by using anti PGE2 antibody labeled with Europium cryptate, and PGE2 labeled with […]. The PGE2 present in the sample competes with the binding between the two HTRF detection solutions (reagents) and thereby prevents FRET from occurring. The specific signal is inversely proportional to the PGE2 concentration. From this binding data, IC50 values were calculated.

[1] = biological target: T2, human recombinant 15-PGDH (Homo sapiens, UniProt P15428); test: Recombinant 15-PGDH enzymatic inhibition assay (PGDH-Lumi, NADH signal); assay type: biochemical; conditions: recombinant 15-PGDH; 15 min pre-incubation, 60 min reaction with PGE2 and NAD+, NADH signal
T2 sequence (P15428 1-266): T1 sequence (P15428 1-266)
In short: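 Buffer 50 mM Tris pH 7.5 with 0.01% Tween-20 and […]; compound, 22 two-fold dilutions, pre-incubated with enzyme 15 min before substrate.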

| IC50 (15-PGDH in A549 cells) [nM] | IC50 [1] [nM] | Compound |
| --- | --- | --- |
| 1.39 | 0.513 | Cn1cc2cc(-c3ccc4nc([C@]5(O)C[C@@]6(CC6(F)F)C5)sc4n3)cnc2n1 (single isomer, unassigned) [Compound C115T, trans-1,1-difluoro-5-(5-(2-methyl-2H-pyrazolo[3,4-b]pyridin-5-yl)[1,3]thiazolo[5,4-b]pyridin-2-yl)spiro[2.3]hexan-5-ol] |
| 0.863 | 0.791 | Cn1cc2cc(-c3ccc4sc([C@@H](O)C5CC(F)(F)C5)cc4n3)cnc2n1 (single isomer, unassigned) [Compound B73S] |
| 2.9 | 0.817 | CO[C@]1(C)C[C@@](O)(c2nc3ccc(-c4cnc5nn(C)cc5c4)nc3s2)C1 (single isomer, unassigned) [Compound C125C, cis-3-methoxy-3-methyl-1-(5-(2-methyl-2H-pyrazolo[3,4-b]pyridin-5-yl)[1,3]thiazolo[5,4-b]pyridin-2-yl)cyclobutanol] |
| 3.25 | 20.9 | C[C@H]1CC[C@]1(O)c1cc2ccc(-c3cnc4nn(C)cc4c3)nc2s1 (single isomer, unassigned) [Compound C64RS] |
| 11.7 | 1.6 | O[C@H](c1cc2ccc(-c3ccc4nccnc4c3)nc2s1)C1CC(F)(F)C1 (single isomer, unassigned) [Compound B52S] |
| 6.66 | 2.8 | COC[C@H]1C[C@](O)(c2cc3cnc(-c4cnc5nn(C)cc5c4)nc3s2)C1 [Compound C119C, cis-3-(methoxymethyl)-1-(2-(2-methyl-2H-pyrazolo[3,4-b]pyridin-5-yl)thieno[2,3-d]pyrimidin-6-yl)cyclobutanol] |
| 3.06 | 3.51 | Cc1cn2ncc(-c3ccc4cc(C5(O)CC(F)(F)C5)sc4n3)cc2n1 [Compound C54, 3,3-difluoro-1-(6-(2-methylimidazo[1,2-b]pyridazin-7-yl)thieno[2,3-b]pyridin-2-yl)cyclobutanol] |
| 0.373 | 0.996 | OC1(c2cc3ccc(-c4cnc5nccnc5c4)nc3s2)CC(F)(F)C1 [Compound C47, 3,3-difluoro-1-(6-(pyrido[2,3-b]pyrazin-7-yl)thieno[2,3-b]pyridin-2-yl)cyclobutanol] |
| 1.46 | 0.333 | Cc1cn2cc(-c3ccc4cc([C@]5(O)C[C@@H](C(F)F)C5)sc4n3)cnc2n1 [Compound C97C, cis-3-(difluoromethyl)-1-(6-(2-methylimidazo[1,2-a]pyrimidin-6-yl)thieno[2,3-b]pyridin-2-yl)cyclobutanol] |
| 0.0321 | 0.366 | Cn1cc2cc(-c3ccc4cc([C@]5(O)C[C@@H](C6CC6)C5)sc4n3)cnc2n1 (single isomer, unassigned) [Compound C62C, cis-3-cyclopropyl-1-(6-(2-methyl-2H-pyrazolo[3,4-b]pyridin-5-yl)thieno[2,3-b]pyridin-2-yl)cyclobutanol] |
| 11.3 | 3.88 | Cn1nnc2cc(-c3ccc4cc([C@]5(O)C[C@@](C)(C#N)C5)sc4n3)cnc21 (single isomer, unassigned) [Compound C104C, cis-3-hydroxy-1-methyl-3-(6-(3-methyl-3H-[1,2,3]triazolo[4,5-b]pyridin-6-yl)thieno[2,3-b]pyridin-2-yl)cyclobutanecarbonitrile] |
| 3.08 | 10.5 | COCC[C@H](O)c1cc2ccc(-c3cnc4nn(C)cc4c3)nc2s1 (single isomer, unassigned) [Compound B29S] |
| 1.22 | 0.742 | Cn1cc2cc(-c3ccc4cc([C@]5(O)C[C@@H](F)C5)sc4n3)cnc2n1 [Compound C40C, cis-3-fluoro-1-(6-(2-methyl-2H-pyrazolo[3,4-b]pyridin-5-yl)thieno[2,3-b]pyridin-2-yl)cyclobutanol] |
| 0.389 | 0.422 | Cn1cc2cc(-c3ccc4cc([C@H](O)C(F)(F)F)sc4n3)cnc2n1 (single isomer, unassigned) [Compound B23R] |
| 4.86 | 1.84 | C[C@@H](O)c1cc2c(-c3ccnn3C)cc(-c3cnc4nn(C)cc4c3)nc2s1 (single isomer, unassigned) [Compound B6R] |
| 0.614 | 0.258 | CC(C)[C@@H](O)c1cc2ccc(-c3cnc4nn(C)cc4c3)nc2s1 (single isomer, unassigned) [Compound B24R] |
| 0.0103 | 0.296 | Cc1c([C@H](O)C2CC(F)(F)C2)sc2nc(-c3cnc4nn(C)cc4c3)ccc12 (single isomer, unassigned) [Compound B83R] |
| 0.0162 | 0.382 | Cn1cc2cc(-c3ncc4cc([C@H](O)C5CC(F)(F)C5)sc4n3)cnc2n1 (single isomer, unassigned) [Compound B75R] |

The remaining lines, values behind:

| Compound | IC50 (15-PGDH in A549 cells) [nM] | IC50 [1] [nM] |
| --- | --- | --- |
| CO[C@@H]1CC[C@@]1(O)c1cc2ccc(-c3cnc4nn(C)cc4c3)nc2s1 (single isomer, unassigned) [Compound C70SR] | 172 | 2260 |
| CO[C@H]1C[C@@H]([C@@H](O)c2cc3ccc(-c4cnc5nn(C)cc5c4)nc3s2)C1 (single isomer, unassigned) [Compound B88RC] | 0.438 | 0.505 |
| CNc1ncc(-c2ccc3cc(C4(O)CC(F)(F)C4)sc3n2)cn1 [Compound C43, 3,3-difluoro-1-(6-(2-(methylamino)-5-pyrimidinyl)thieno[2,3-b]pyridin-2-yl)cyclobutanol] | 6.34 | 5.3 |
| COCC[C@@H](O)c1cc2ccc(-c3cnc4nn(C)cc4c3)nc2s1 (single isomer, unassigned) [Compound B29R] | 0.745 | 0.209 |
| Cn1cc2cc(-c3ccc4cc([C@@H](O)[C@@H]5CC5(F)F)sc4n3)cnc2n1 (single isomer, unassigned) [Compound B85SS] | 2.83 | 3.32 |
| Cn1cc2cc(-c3ccc4cc(C5(O)CC5)sc4n3)cnc2n1 [Compound C60, 1-(6-(2-methyl-2H-pyrazolo[3,4-b]pyridin-5-yl)thieno[2,3-b]pyridin-2-yl)cyclopropanol] | 26.7 | 52.1 |
| Cn1cc2cc(-c3ncc4cc([C@]5(O)C[C@]6(CC6(F)F)C5)sc4n3)cnc2n1 (single isomer, unassigned) [Compound C114C, cis-1,1-difluoro-5-(2-(2-methyl-2H-pyrazolo[3,4-b]pyridin-5-yl)thieno[2,3-d]pyrimidin-6-yl)spiro[2.3]hexan-5-ol] | 0.821 | 0.323 |
| CO[C@]1(C)C[C@](O)(c2cc3cnc(-c4cnc5nn(C)cc5c4)nc3s2)C1 (single isomer, unassigned) [Compound C118T] | 2.73 | 0.864 |
| CO[C@H]1C[C@H]([C@H](O)c2cc3ccc(-c4cnc5nn(C)cc5c4)nc3s2)C1 (single isomer, unassigned) [Compound B88ST] | 0.504 | 1.12 |
| Cn1cc2cc(-c3ccc4cc(C(O)CCC(F)(F)F)sc4c3)cnc2n1 (stereo not drawn) [Compound B60, 4,4,4-trifluoro-1-(6-(2-methyl-2H-pyrazolo[3,4-b]pyridin-5-yl)-1-benzothiophen-2-y1)-1-butanol] | 9.36 | 3.03 |
| CO[C@H]1C[C@H]([C@@H](O)c2cc3ccc(-c4cnc5nn(C)cc5c4)nc3s2)C1 (single isomer, unassigned) [Compound B88RT] | 0.511 | 0.524 |
| CC(C)n1ncc2cc(-c3ccc4cc([C@H](O)C5CC(F)(F)C5)sc4n3)cnc21 (single isomer, unassigned) [Compound B65R] | 0.263 | 0.381 |
| Cn1cc2cc(-c3ccc4cc([C@H](O)C5CCCC5)sc4c3)cnc2n1 (single isomer, unassigned) [Compound B58R] | 1.41 | 0.24 |
| Cn1cc2cc(-c3cnc4cc([C@@H](O)C5CC(F)(F)C5)sc4c3)cnc2n1 (single isomer, unassigned) [Compound B78S] | 57.1 | 896 |
| Cn1cc2cc(-c3ccc4cc([C@H](O)C5(C)CC(F)(F)C5)sc4n3)cnc2n1 (single isomer, unassigned) [Compound B86R] | 0.499 | 0.504 |
| C[C@@H](O)c1cc2c(C3CC3)cc(-c3cnc4nn(C)cc4c3)nc2s1 (single isomer, unassigned) [Compound B11R] | 26.9 | 3.42 |
| Cn1cc2cc(-c3ccc4sc([C@]5(O)C[C@](C)(C#N)C5)cc4n3)cnc2n1 (single isomer, unassigned) [Compound C106T, trans-3-hydroxy-1-methyl-3-(5-(2-methyl-2H-pyrazolo[3,4-b]pyridin-5-yl)thieno[3,2-b]pyridin-2-yl)cyclobutanecarbonitrile] | 45.2 | 24.2 |
| CO[C@]1(C)C[C@](O)(c2nc3ccc(-c4cnc5nn(C)cc5c4)nc3s2)C1 (single isomer, unassigned) [Compound C125T, trans-3-methoxy-3-methyl-1-(5-(2-methyl-2H-pyrazolo[3,4-b]pyridin-5-yl)[1,3]thiazolo[5,4-b]pyridin-2-yl)cyclobutanol] | 5.42 | 0.75 |
